Laboratory results from ChEMBL document CHEMBL1201862, “PubChem BioAssay data set” (2004).
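Cultured in 96-well plates, cells were exposed to test compound for 48 hours across five concentrations. GI50 is the concentration that inhibits growth by half.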 Calls of active or inactive are those of the source. Rule as the data show it: active = GI50 up to about 1.1 µM and inactive = higher. Non-standard residues stand in square brackets, D forms with d. Residues, ends and D or L forms follow the SMILES beside them.

What was measured:
Assay in all cases: NCI-60 cell line screen, 48 h
Malme-3M = system: Malme-3M
SR = system: SR
SW-620 = system: SW-620
HL-60 = system: HL-60
786-0 = system: 786-0
NCI/ADR-RES = system: NCI/ADR-RES
IGROV-1 = system: IGROV-1
UO-31 = system: UO-31
MOLT-4 = system: MOLT-4
MDA-MB-435 = system: MDA-MB-435
OVCAR-5 = system: OVCAR-5
RPMI-8226 = system: RPMI-8226
A549 = system: A549
HCT-15 = system: HCT-15
RXF 393 = system: RXF 393
OVCAR-3 = system: OVCAR-3
HOP-62 = system: HOP-62
SF-539 = system: SF-539
HOP-92 = system: HOP-92

Compound	GI50 (Malme-3M)	GI50 (SR)	GI50 (SW-620)	GI50 (HL-60)	GI50 (786-0)	GI50 (NCI/ADR-RES)	GI50 (IGROV-1)	GI50 (UO-31)	GI50 (MOLT-4)	GI50 (MDA-MB-435)	GI50 (OVCAR-5)	GI50 (RPMI-8226)	GI50 (A549)	GI50 (HCT-15)	GI50 (RXF 393)	GI50 (OVCAR-3)	GI50 (HOP-62)	GI50 (SF-539)	GI50 (HOP-92)
CCSCCCC(=O)O	> 100 µM (inactive)	> 100 µM (inactive)	> 100 µM (inactive)	> 100 µM (inactive)	> 100 µM (inactive)	> 100 µM (inactive)	> 100 µM (inactive)	> 100 µM (inactive)	> 100 µM (inactive)	> 100 µM (inactive)	> 100 µM (inactive)	> 100 µM (inactive)	> 100 µM (inactive)	> 100 µM	> 100 µM (inactive)	> 100 µM (inactive)	> 100 µM (inactive)		
CN1CCN(CCCN)CC1	> 100 µM (inactive)	> 100 µM (inactive)	> 100 µM (inactive)	> 100 µM (inactive)	> 100 µM (inactive)	> 100 µM (inactive)	> 100 µM (inactive)	> 100 µM (inactive)	> 100 µM (inactive)	> 100 µM (inactive)	> 100 µM (inactive)	> 100 µM (inactive)	> 100 µM (inactive)	> 100 µM	> 100 µM (inactive)	> 100 µM (inactive)	> 100 µM (inactive)		
O=Cc1ccc2[nH]c(=O)oc2c1	> 100 µM (inactive)	39.7 µM (inactive)	> 100 µM (inactive)	99.5 µM (inactive)	> 100 µM (inactive)	> 100 µM (inactive)	> 100 µM (inactive)	23.1 µM (inactive)	60.4 µM (inactive)	> 100 µM (inactive)	> 100 µM (inactive)	> 100 µM (inactive)		> 100 µM	94.8 µM (inactive)	> 100 µM (inactive)	> 100 µM (inactive)	> 100 µM (inactive)	
C/C(=N\NC(=S)N1CCN(C)CC1)c1nc2cccnc2[nH]1	> 100 µM (inactive)		> 100 µM (inactive)	> 100 µM (inactive)	> 100 µM (inactive)	> 100 µM (inactive)	> 100 µM (inactive)	32 µM (inactive)	> 100 µM (inactive)	> 100 µM (inactive)	> 100 µM (inactive)	> 100 µM (inactive)	> 100 µM (inactive)	> 100 µM		> 100 µM (inactive)	> 100 µM (inactive)	> 100 µM (inactive)	> 100 µM (inactive)
CCCCCCn1c(SC)nc(COC(=O)NC)c1COC(=O)NC		19.7 µM (inactive)	19.2 µM (inactive)	19.6 µM (inactive)	15.3 µM (inactive)	25.5 µM (inactive)	15.3 µM (inactive)	16.9 µM (inactive)	13 µM (inactive)	19.7 µM (inactive)	19.9 µM (inactive)	22.4 µM (inactive)	16.4 µM (inactive)	32.4 µM		17.9 µM (inactive)	19.6 µM (inactive)	17.6 µM (inactive)	
COc1ccc(-c2c(N)n(-c3cccc(C(=O)O)c3)c(=O)c3cc([N+](=O)[O-])ccc23)cc1		> 100 µM (inactive)	> 100 µM (inactive)	> 100 µM (inactive)	> 100 µM (inactive)	> 100 µM (inactive)	> 100 µM (inactive)	> 100 µM (inactive)	> 100 µM (inactive)	> 100 µM (inactive)	> 100 µM (inactive)	> 100 µM (inactive)	> 100 µM (inactive)	> 100 µM	> 100 µM (inactive)	> 100 µM (inactive)	> 100 µM (inactive)	> 100 µM (inactive)	
FC1(F)[Se]C2C3CCC(C3)C2C1(F)F (stereo unspecified)	> 100 µM (inactive)	> 100 µM (inactive)	> 100 µM (inactive)		> 100 µM (inactive)	> 100 µM (inactive)	> 100 µM (inactive)	> 100 µM (inactive)	> 100 µM (inactive)	> 100 µM (inactive)	> 100 µM (inactive)	> 100 µM (inactive)	> 100 µM (inactive)	> 100 µM	> 100 µM (inactive)	> 100 µM (inactive)	> 100 µM (inactive)	> 100 µM (inactive)	
O=C(O)CNn1c(SCC(=O)O)nnc(/C=C/c2c(O)ccc3ccccc23)c1=O	40.3 µM (inactive)	32.3 µM (inactive)	44.9 µM (inactive)	9.98 µM (inactive)	30.3 µM (inactive)	15 µM (inactive)	0.15 µM (active)	29.4 µM (inactive)		75.7 µM (inactive)	28.5 µM (inactive)	29.8 µM (inactive)	44.2 µM (inactive)	17.6 µM		22.7 µM (inactive)	16.1 µM (inactive)	> 100 µM (inactive)	
Cn1c(N)c(/C=C/C(=O)Oc2ccccc2)c(=O)n(C)c1=O	> 100 µM (inactive)		> 100 µM (inactive)	> 100 µM (inactive)	78.9 µM (inactive)	75.3 µM (inactive)	67.9 µM (inactive)	49.7 µM (inactive)	> 100 µM (inactive)	> 100 µM (inactive)	> 100 µM (inactive)	> 100 µM (inactive)	> 100 µM (inactive)	> 100 µM	44.2 µM (inactive)	> 100 µM (inactive)	19.1 µM (inactive)	50.8 µM (inactive)	22.3 µM (inactive)
CCn1c2ccccc2c2ccc(C3C(C(=O)OC)=C(C)NC(C)=C3C(=O)OC)cc21	20 µM (inactive)	42.9 µM (inactive)	66.1 µM (inactive)	20.1 µM (inactive)	38.2 µM (inactive)	38.5 µM (inactive)	> 100 µM (inactive)	39 µM (inactive)	28.2 µM (inactive)	45.6 µM (inactive)	> 100 µM (inactive)	21.1 µM (inactive)	46.6 µM (inactive)	46.3 µM	15.4 µM (inactive)	33.3 µM (inactive)	55.1 µM (inactive)	30.2 µM (inactive)	
CC(C)(C)/N=C1\C(=O)C2(C)CCC1C2(C)C (stereo unspecified)	> 100 µM (inactive)	> 100 µM (inactive)	> 100 µM (inactive)		> 100 µM (inactive)	> 100 µM (inactive)	> 100 µM (inactive)	> 100 µM (inactive)		> 100 µM (inactive)	> 100 µM (inactive)	> 100 µM (inactive)	> 100 µM (inactive)	> 100 µM	> 100 µM (inactive)	> 100 µM (inactive)	> 100 µM (inactive)	> 100 µM (inactive)	
CC1(C)CCC[C@]2(C)[C@@H]1CC[C@@]13O[C@@H]1C1=C(CO)C(=O)OC1=C[C@@H]23	1.1 µM (active)		18.9 µM (inactive)		14.3 µM (inactive)	15.8 µM (inactive)	5.68 µM (inactive)	11.7 µM (inactive)	17.3 µM (inactive)	20.5 µM (inactive)	9.71 µM (inactive)	21.1 µM (inactive)	10.4 µM (inactive)	14.4 µM	19.9 µM (inactive)		25.6 µM (inactive)		15.4 µM (inactive)
CCOC(=O)c1ccc(-n2cnc(-c3ccc([N+](=O)[O-])cc3)c2)cc1	80.7 µM (inactive)	> 100 µM (inactive)	75.7 µM (inactive)	> 100 µM (inactive)	> 100 µM (inactive)	> 100 µM (inactive)	> 100 µM (inactive)	> 100 µM (inactive)	> 100 µM (inactive)	> 100 µM (inactive)	> 100 µM (inactive)	> 100 µM (inactive)	> 100 µM (inactive)	> 100 µM		79.8 µM (inactive)	94.2 µM (inactive)	> 100 µM (inactive)	
CO/N=C(\C)CCC#Cc1ccccc1C(=O)OC	> 10 µM (inactive)	> 10 µM (inactive)	> 10 µM (inactive)	> 10 µM (inactive)	> 10 µM (inactive)	> 10 µM (inactive)	> 10 µM (inactive)	> 10 µM (inactive)	> 10 µM (inactive)	> 10 µM (inactive)	> 10 µM (inactive)	> 10 µM (inactive)	> 10 µM (inactive)	> 10 µM	> 10 µM (inactive)	> 10 µM (inactive)	> 10 µM (inactive)	> 10 µM (inactive)	
Nc1cc(OCC2CCCCC2)nc(N)n1	> 100 µM (inactive)		> 100 µM (inactive)	> 100 µM (inactive)	> 100 µM (inactive)	> 100 µM (inactive)	67.9 µM (inactive)	> 100 µM (inactive)	82.2 µM (inactive)	> 100 µM (inactive)	> 100 µM (inactive)	> 100 µM (inactive)	93.8 µM (inactive)	> 100 µM	> 100 µM (inactive)	> 100 µM (inactive)	> 100 µM (inactive)	> 100 µM (inactive)	> 100 µM (inactive)
CSCC[C@H](NC(=O)[C@@H](N)CC(N)=O)C(=O)N[C@@H](Cc1c[nH]c2ccccc12)C(=O)N[C@@H](CCC(N)=O)C(=O)N[C@@H](CCC(=O)O)C(=O)N[C@H](C(=O)NCC(=O)N[C@@H](CCCCN)C(=O)N[C@H](C)C(=O)O)C(C)C (H-NMWQEVGK[dA]-OH)	> 100 µM (inactive)		> 100 µM (inactive)	> 100 µM (inactive)	> 100 µM (inactive)	> 100 µM (inactive)	> 100 µM (inactive)		> 100 µM (inactive)	> 100 µM (inactive)	> 100 µM (inactive)	> 100 µM (inactive)	> 100 µM (inactive)	> 100 µM	> 100 µM (inactive)	> 100 µM (inactive)	> 100 µM (inactive)	> 100 µM (inactive)	> 100 µM (inactive)
